In patent publication US8299048B2, “Hexahydrocyclopentyl[f]indazole sulfonamides and derivatives thereof as selective glucocorticoid receptor modulators” (Merck Sharp & Dohme Corp., priority 2008, dated 2012):
pKi: −log10 of the molar value.

Molecular target: T1, glucocorticoid receptor (Homo sapiens, UniProt P04150)
T1 construct: endogenous in cells
T1 sequence (P04150 1-777): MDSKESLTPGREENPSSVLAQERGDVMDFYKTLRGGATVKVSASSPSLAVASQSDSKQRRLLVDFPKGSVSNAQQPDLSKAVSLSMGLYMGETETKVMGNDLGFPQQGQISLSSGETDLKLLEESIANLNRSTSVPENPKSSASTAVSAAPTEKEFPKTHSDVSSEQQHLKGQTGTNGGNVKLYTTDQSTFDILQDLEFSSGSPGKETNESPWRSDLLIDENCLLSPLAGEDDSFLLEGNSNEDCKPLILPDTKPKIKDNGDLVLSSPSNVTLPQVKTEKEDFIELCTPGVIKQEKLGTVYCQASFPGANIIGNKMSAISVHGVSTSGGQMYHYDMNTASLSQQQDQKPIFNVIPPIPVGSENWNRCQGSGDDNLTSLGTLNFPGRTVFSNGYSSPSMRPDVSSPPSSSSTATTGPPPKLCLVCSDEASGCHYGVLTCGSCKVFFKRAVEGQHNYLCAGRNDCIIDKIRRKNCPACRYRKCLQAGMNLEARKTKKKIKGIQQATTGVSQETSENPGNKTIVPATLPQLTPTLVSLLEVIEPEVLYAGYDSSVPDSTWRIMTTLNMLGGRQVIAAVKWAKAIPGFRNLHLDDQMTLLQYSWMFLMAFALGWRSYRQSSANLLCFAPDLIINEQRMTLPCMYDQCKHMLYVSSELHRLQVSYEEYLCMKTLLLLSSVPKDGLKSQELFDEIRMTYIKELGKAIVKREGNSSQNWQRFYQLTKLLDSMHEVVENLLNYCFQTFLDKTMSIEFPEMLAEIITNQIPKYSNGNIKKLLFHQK
Assay: Ligand binding assay (GR BIND)
Procedure, shortened: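 Cytosol from freeze–thawed cells in TEGM (pH 7.2, 10 mM molybdate) was incubated overnight at 4 °C with compound and [3H]-dexamethasone trace (added as 6 nM solution), 2% EtOH final. Bound ligand was captured on hydroxylapatite, filtered, washed and scintillation counted. Values were calculated with dexamethasone as reference.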

| Compound | pKi |
| --- | --- |
| C[C@]12Cc3cnn(-c4ccc(F)cc4)c3C=C1CC[C@@H]2CN(CCc1ccccn1)S(=O)(=O)Cc1cccnc1 [Example 1, N-{[(4αR,5S)-1-(4-Fluorophenyl)-4α-methyl-1,4,4α,5,6,7-hexahydrocyclopenta[f]indazol-5-yl]methyl}-1-pyridin-3-yl-N-(2-pyridin-2-ylethyl)methanesulfonamide] | 8.74 |
| C[C@]12Cc3cnn(-c4ccc(F)cc4)c3C=C1CC[C@@H]2CN(CC1CC1)S(=O)(=O)c1ccccc1F [Example 2, N-(cyclopropylmethyl)-2-fluoro-N-{[(4αR,5S)-1-(4-fluorophenyl)-4α-methyl-1,4,4α,5,6,7-hexahydrocyclopenta[f]indazol-5-yl]methyl}benzenesulfonamide] | 9.22 |
| C=CCN(C[C@H]1CCC2=Cc3c(cnn3-c3ccc(F)cc3)C[C@@]21C)S(=O)(=O)c1ccccc1F [Example 3, N-allyl-2-fluoro-N-{[(4αR,5S)-1-(4-fluorophenyl)-4α-methyl-1,4,4α,5,6,7-hexahydrocyclopenta[f]indazol-5-yl]methyl}benzenesulfonamide] | 9.10 |
| C[C@]12Cc3cnn(-c4ccc(F)cc4)c3C=C1CC[C@@H]2CN(CC1CC1)S(=O)(=O)c1ccccc1C(F)(F)F [Example 4, N-(cyclopropylmethyl)-N-{[(4αR,5S)-1-(4-fluorophenyl)-4α-methyl-1,4,4α,5,6,7-hexahydrocyclopenta[f]indazol-5-yl]methyl}-2-(trifluoromethyl)benzenesulfonamide] | 8.66 |
| C[C@]12Cc3cnn(-c4ccc(F)cc4)c3C=C1CC[C@@H]2CN(CCO)S(=O)(=O)Cc1cccc(C(F)(F)F)c1 [Example 63, N-{[(4αR,5S)-1-(4-fluorophenyl)-4α-methyl-1,4,4α,5,6,7-hexahydrocyclopenta[f]indazol-5-yl]methyl}-N-(2-hydroxyethyl)-1-[3-(trifluoromethyl)phenyl]methanesulfonamide] | 8.04 |
| Cc1ccc(S(=O)(=O)N(CCO)C[C@H]2CCC3=Cc4c(cnn4-c4ccc(F)cc4)C[C@@]32C)s1 [Example 64, N-{[(4αR,5S)-1-(4-fluorophenyl)-4α-methyl-1,4,4α,5,6,7-hexahydrocyclopenta[f]indazol-5-yl]methyl}-N-(2-hydroxyethyl)-5-methylthiophene-2-sulfonamide] | 8.52 |
| Cn1cc(S(=O)(=O)N(CCO)C[C@H]2CCC3=Cc4c(cnn4-c4ccc(F)cc4)C[C@@]32C)c(C(F)(F)F)n1 [Example 65, N-{[(4αR,5S)-1-(4-fluorophenyl)-4α-methyl-1,4,4α,5,6,7-hexahydrocyclopenta[f]indazol-5-yl]methyl}-N-(2-hydroxyethyl)-1-methyl-3-(trifluoromethyl)-1H-pyrazole-4-sulfonamide] | 8.57 |
| Cc1cc(S(=O)(=O)N(CCO)C[C@H]2CCC3=Cc4c(cnn4-c4ccc(F)cc4)C[C@@]32C)c(C)o1 [Example 66, N-{[(4αR,5S)-1-(4-fluorophenyl)-4α-methyl-1,4,4α,5,6,7-hexahydrocyclopenta[f]indazol-5-yl]methyl}-N-(2-hydroxyethyl)-2,5-dimethylfuran-3-sulfonamide] | 8.10 |
| Cn1nc(C(F)(F)F)cc1-c1ccc(S(=O)(=O)N(CCO)C[C@H]2CCC3=Cc4c(cnn4-c4ccc(F)cc4)C[C@@]32C)s1 [Example 67, N-{[(4αR,5S)-1-(4-fluorophenyl)-4α-methyl-1,4,4α,5,6,7-hexahydrocyclopenta[f]indazol-5-yl]methyl}-N-(2-hydroxyethyl)-5-[1-methyl-3-(trifluoromethyl)-1H-pyrazole-5-yl]thiophene-2-sulfonamide] | 7.87 |
| C[C@]12Cc3cnn(-c4ccc(F)cc4)c3C=C1CC[C@@H]2CN(CCO)S(=O)(=O)c1cccc(C#N)c1 [Example 68, 3-cyano-N-{[(4αR,5S)-1-(4-fluorophenyl)-4α-methyl-1,4,4α,5,6,7-hexahydrocyclopenta[f]indazol-5-yl]methyl}-N-(2-hydroxyethyl)benezenesulfonamide] | 8.44 |
| C[C@]12Cc3cnn(-c4ccc(F)cc4)c3C=C1CC[C@@H]2CN(CCO)S(=O)(=O)c1ccc(Oc2cccc(Cl)c2C#N)cc1 [Example 69, 4-(3-chloro-2-cyanophenoxy)-N-{[(4αR,5S)-1-(4-fluorophenyl)-4α-methyl-1,4,4α,5,6,7-hexahydrocyclopenta[f]indazol-5-yl]methyl}-N-(2-hydroxyethyl)benzenesulfonamide] | 8.06 |
| C[C@]12Cc3cnn(-c4ccc(F)cc4)c3C=C1CC[C@@H]2CN(CCO)S(=O)(=O)c1ccccc1C(F)(F)F [Example 70, N-{[(4αR,5S)-1-(4-fluorophenyl)-4α-methyl-1,4,4α,5,6,7-hexahydrocyclopenta[f]indazol-5-yl]methyl}-N-(2-hydroxyethyl)-2-(trifluoromethyl)benzenesulfonamide] | 8.35 |
| Cc1noc(C)c1S(=O)(=O)N(CCO)C[C@H]1CCC2=Cc3c(cnn3-c3ccc(F)cc3)C[C@@]21C [Example 71, N-{[(4αR,5S)-1-(4-fluorophenyl)-4α-methyl-1,4,4α,5,6,7-hexahydrocyclopenta[f]indazol-5-yl]methyl}-N-(2-hydroxyethyl)-3,5-dimethylisoxazole-4-sulfonamide] | 8.30 |
| C[C@]12Cc3cnn(-c4ccc(F)cc4)c3C=C1CC[C@@H]2CN(CCO)S(=O)(=O)c1cc(F)cc(F)c1 [Example 72] | 8.85 |
| COC(=O)c1ccccc1S(=O)(=O)N(CCO)C[C@H]1CCC2=Cc3c(cnn3-c3ccc(F)cc3)C[C@@]21C [Example 73, methyl 2-{[{[(4αR,5S)-1-(4-fluorophenyl)-4α-methyl-1,4,4α,5,6,7-hexahydrocyclopenta[f]indazol-5-yl]methyl}(2-hydroxyethyl)amino]sulfonyl}benzoate] | 8.51 |
| C[C@]12Cc3cnn(-c4ccc(F)cc4)c3C=C1CC[C@@H]2CN(CCO)S(=O)(=O)c1ccc(Oc2ccccn2)cc1 [Example 74, N-{[(4αR,5S)-1-(4-fluorophenyl)-4α-methyl-1,4,4α,5,6,7-hexahydrocyclopenta[f]indazol-5-yl]methyl}-N-(2-hydroxyethyl)-4-(pyridin-2-yloxy)benzenesulfonamide] | 8.52 |
| C[C@]12Cc3cnn(-c4ccc(F)cc4)c3C=C1CC[C@@H]2CN(CCO)S(=O)(=O)Cc1ccccc1 [Example 75, N-{[(4αR,5S)-1-(4-fluorophenyl)-4α-methyl-1,4,4α,5,6,7-hexahydrocyclopenta[f]indazol-5-yl]methyl}-N-(2-hydroxyethyl)-1-phenylmethanesulfonamide] | 8.60 |
| CNC(=O)Nc1ccc(S(=O)(=O)N(CCO)C[C@H]2CCC3=Cc4c(cnn4-c4ccc(F)cc4)C[C@@]32C)c(Cl)c1 [Example 76, 2-chloro-N-{[(4αR,5S)-1-(4-fluorophenyl)-4α-methyl-1,4,4α,5,6,7-hexahydrocyclopenta[f]indazol-5-yl]methyl}-N-(2-hydroxyethyl)-4-{[(methylamino)carbonyl]amino}-benzenesulfonamide] | 8.11 |
| Cc1ccccc1S(=O)(=O)N(CCO)C[C@H]1CCC2=Cc3c(cnn3-c3ccc(F)cc3)C[C@@]21C [Example 77, N-{[(4αR,5S)-1-(4-fluorophenyl)-4α-methyl-1,4,4α,5,6,7-hexahydrocyclopenta[f]indazol-5-yl]methyl}-N-(2-hydroxyethyl)-2-methylbenzenesulfonamide] | 8.74 |
